Data published in the supplement of paper PMC11061612.

Assays:
Assay in all cases: Bliss excess, mean over the matrix (fraction); higher = more synergy
[1] = test system: DMS-53 (Small Cell Lung Carcinoma)
Method in brief: (§1)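 Cell lines grown in DMEM/F12 or RPMI with 10% FBS were plated in 1536-well plates and held 24 hours at 37°C, 5% CO2 before 72 hours of exposure to two-drug dose matrices, with DMSO typically at 0.2%. CellTiter-Glo 2.0 luminescence gave viability, which was converted to inhibition. Vehicle wells were set to 0 and blank wells to 1. Combination Emax is the second-highest inhibition in the matrix, and Bliss excess is the observed combination effect minus the expected EA + EB − EA·EB, where EA and EB are the single-agent effects.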

[2] = test system: HCC1428 (Breast Carcinoma)
Method in brief: as §1

HCC70 (Breast Carcinoma) = test system: HCC70 (Breast Carcinoma)
Method in brief: as §1

[3] = test system: G-402 (Other Solid Carcinomas)
Method in brief: as §1

[4] = test system: huH-1 (Hepatocellular Carcinoma)
Method in brief: as §1

[5] = test system: JIMT-1 (Breast Carcinoma)
Method in brief: as §1

[6] = test system: CGTH-W-1 (Thyroid Gland Carcinoma)
Method in brief: as §1

AU565 (Breast Carcinoma) = test system: AU565 (Breast Carcinoma)
Method in brief: as §1

EW-7 (Ewing's Sarcoma) = test system: EW-7 (Ewing's Sarcoma)
Method in brief: as §1

[7] = test system: HT55 (Colorectal Carcinoma)
Method in brief: as §1

[8] = test system: NCI-H2087 (Lung Adenocarcinoma)
Method in brief: as §1

WM1552C (Melanoma) = test system: WM1552C (Melanoma)
Method in brief: as §1

[9] = test system: 22RV1 (Prostate Carcinoma)
Method in brief: as §1

[10] = test system: CAL-27 (Oral Cavity Carcinoma)
Method in brief: as §1

[11] = test system: HCC1395 (Breast Carcinoma)
Method in brief: as §1

[12] = test system: MDA-MB-436 (Breast Carcinoma)
Method in brief: as §1

[13] = test system: LU-165 (Small Cell Lung Carcinoma)
Method in brief: as §1

RH-41 (Rhabdomyosarcoma) = test system: RH-41 (Rhabdomyosarcoma)
Method in brief: as §1

[14] = test system: EPLC-272H (Other Solid Carcinomas)
Method in brief: as §1

EW-16 (Ewing's Sarcoma) = test system: EW-16 (Ewing's Sarcoma)
Method in brief: as §1

Structure (SMILES) | Bliss excess [1] | Bliss excess [2] | Bliss excess (HCC70 (Breast Carcinoma)) | Bliss excess [3] | Bliss excess [4] | Bliss excess [5] | Bliss excess [6] | Bliss excess (AU565 (Breast Carcinoma)) | Bliss excess (EW-7 (Ewing's Sarcoma)) | Bliss excess [7] | Bliss excess [8] | Bliss excess (WM1552C (Melanoma)) | Bliss excess [9] | Bliss excess [10] | Bliss excess [11] | Bliss excess [12] | Bliss excess [13] | Bliss excess (RH-41 (Rhabdomyosarcoma)) | Bliss excess [14] | Bliss excess (EW-16 (Ewing's Sarcoma))
COc1cccc(OCCCN)c1-c1cc(Nc2cnc(C#N)cn2)n[nH]1 [Prexasertib] + O=C(c1cc(Cc2n[nH]c(=O)c3ccccc23)ccc1F)N1CCN(C(=O)C2CC2)CC1 [Olaparib] (first compound max 1 µM, 7x7, partner max 10 µM) | -0.0473 | 0.0501 | -0.0503 | -0.0572 | 0.0434 | -0.0182 | -0.0511 | -0.0097 | -0.0465 | -0.0102 | -0.11 | -0.134 | -0.072 | -0.0113 | -0.0368 | 0.0035 | -0.128 | -0.061 | -0.0631 | 0.0036
CCc1c2c(nc3ccc(O)cc13)-c1cc3c(c(=O)n1C2)COC(=O)[C@]3(O)CC [SN-38] + CN(C)CCCOc1ccc(-c2ccc3ncc4c(c3c2)n(C2CCOCC2)c(=O)n4C)cn1 [AZD0156] (first compound max 0.3 µM, 7x7, partner max 1 µM) | -0.0288 | -0.0584 | 0.0152 | 0.003 | 0.0502 | 0.0056 | -0.0056 | -0.0621 | 0.0647 | 0.0776 | 0.0485 | 0.0013 | 0.0403 | 0.0255 | -0.0024 | 0.0033 | -0.028 | -0.0913 | 0.0536 | 0.0385
Cn1cnc2c(F)c(Nc3ccc(Br)cc3Cl)c(C(=O)NOCCO)cc21 [Selumetinib] + C=CCn1c(=O)c2cnc(Nc3ccc(N4CCN(C)CC4)cc3)nc2n1-c1cccc(C(C)(C)O)n1 [AZD1775] (first compound max 10 µM, partner max 1 µM) | -0.0174 | -0.0409 | 0.0361 | -0.073 | -0.116 | -0.0606 | -0.0427 | -0.0507 | -0.0115 | -0.0422 | 0.0084 | -0.0674 | 0.0454 | 0.0384 | -0.0333 | -0.0002 | -0.0589 | -0.0189 | -0.0607 | -0.0214
Cn1cnc2c(F)c(Nc3ccc(Br)cc3Cl)c(C(=O)NOCCO)cc21 [Selumetinib] + CC(C)n1c(=O)n(C)c2cnc3cc(F)c(-c4ccc(OCCCN5CCCCC5)nc4)cc3c21 [AZD1390] (first compound max 10 µM, 7x7, partner max 0.3 µM) | -0.0267 | -0.0333 | 0.0225 | -0.0095 | -0.0349 | -0.0471 | -0.0388 | 0.005 | -0.0117 | -0.0388 | -0.0541 | -0.0102 | -0.0538 | -0.0489 | -0.0327 | -0.0394 | -0.03 | -0.0082 | -0.0442 | -0.0582
Cn1cnc2c(F)c(Nc3ccc(Br)cc3Cl)c(C(=O)NOCCO)cc21 [Selumetinib] + CCN(CCO)CCCOc1ccc2c(Nc3cc(CC(=O)Nc4cccc(F)c4)[nH]n3)ncnc2c1 [AZD2811] (first compound max 10 µM, 7x7, partner max 1 µM) | -0.0629 | 0.0269 | 0.0138 | -0.0137 | -0.0492 | -0.0403 | -0.0329 | -0.0167 | -0.0023 | 0.0032 | -0.0497 | -0.0694 | -0.0797 | -0.0921 | -0.008 | -0.006 | -0.0377 | 0.0363 | 0.0426 | -0.0221
Cn1cnc2c(F)c(Nc3ccc(Br)cc3Cl)c(C(=O)NOCCO)cc21 [Selumetinib] + C[C@@H]1COCCN1C2=NC(=NC(=C2)C3(CC3)[S@](=N)(=O)C)C4=C5C=CNC5=NC=C4 [AZD6738] (first compound max 10 µM, 7x7, partner max 10 µM) | -0.0272 | -0.0527 | 0.0731 | -0.0353 | -0.0551 | -0.0853 | -0.0232 | -0.0014 | 0.0112 | 0.004 | -0.0057 | -0.0591 | 0.0144 | 0.0939 | -0.0128 | -0.0064 | -0.0284 | -0.0004 | -0.0497 | -0.0914
CC(=O)Nc1cccc(-n2c(=O)n(C3CC3)c(=O)c3c(Nc4ccc(I)cc4F)n(C)c(=O)c(C)c32)c1 [Trametinib] + Cc1nc(-c2cn3c(n2)-c2ccc(-c4cnn(C(C)(C)C(N)=O)c4)cc2OCC3)n(C(C)C)n1 [Taselisib] (first compound max 1 µM, 7x7, partner max 10 µM) | 0.0285 | 0.0116 | 0.149 | 0.0104 | 0.195 | 0.11 | 0.174 | 0.102 | 0.0479 | -0.0116 | 0.163 | 0.0903 | 0.0551 | 0.128 | 0.0616 | 0.0567 | 0.0388 | 0.0419 | 0.041 | 0.0772
